Results taken from patent US20240118210A1, “FFN FLUORESCENCE RELEASE ASSAY (FFRA) AND METHODS OF USING SAME” (Duke University, priority 2021, published 2024).

Key:
healthy donor platelets [1] = test: FFN246 release with platelet activation by several platelet agonists (Example 3, FIG. 2); assay type: cell-based; details: for MFI of platelet releasate, FFN246+agonist: platelets loaded with 50 μM FFN246, 45 min, A23187 10 μM, ADP 25 μM, ristocetin 73 μM, collagen 63 nM, IIa 278 nM, PAR4 peptide 200 μM, SFLLRN 100 μM
Procedure: To determine if FFN246 loaded platelets release FFN246 with other platelet agonists and receptor mechanisms, FFN246 release was examined by incubating platelets with several platelet secretogogues, including collagen, IIa, PAR4, SFLLRN. […] Collagen stimulates the GP VI receptor; ADP stimulates the P2Y1 and P2Y12 receptors; IIa activates PAR1 and PAR4 receptors; SFLLRN binds to the PAR1 receptor; PAR4 agonist binds the PAR4 receptor.
To examine the effect of various platelet agonists on FFN246 release, healthy donor platelets were washed and incubated with and without FFN246 (50 μM) for 30 minutes, followed by the addition of 1 mM imipramine for 10 minutes to block further reuptake. Platelets were then incubated with the various conditions: (1) A23187 10 μM; (2) buffer alone; (3) ADP 25 μM; (4) ristocetin 73 μM; (5) collagen 63 nM; (6) IIa 278 nM; (7) PAR4 peptide 200 μM; (8) SFLLRN 100 μM: and (9) buffer only platelets+A23187 (10 μM) for 45 minutes. Following incubation with agonists, platelets were centrifuged for 10 minutes at 576×g. Fluorescence in the platelet releasate (i.e. supernatant) was measured in a BMG Labtech Fluostar Optima fluorometer at an appropriate emission/excitation spectra. Gain was set using the FFN246 releasate for each concentration at 50% of maximum signal.

[2] = system: healthy donor washed platelets; test: FFN246 release on platelet activation with HIT-like monoclonal antibody KKO (Example 4, FIG. 3); assay type: cell-based; details: for MFI of platelet releasate, FFN246+agonist or antibody, no heparin: platelets loaded with 50 μM FFN246, 45 min, collagen 63 nM, SFLLRN 100 μM, KKO alone 25 μg/mL
Procedure: To examine the effect of various platelet agonists on FFN246 release, healthy donor washed platelets were incubated with 50 μM FFN246 for 30 minutes, followed by addition of 1 mM imipramine for 10 minutes to block further reuptake. Platelets were then incubated with (1) A23187 10 μM; (2) collagen 63 nM; (3) SFLLRN 100 μM; (4) buffer; (5) KKO alone 25 μg/mL; (6) 0.5 U/mL heparin, 25 μg/ml KKO; (7) 10 U/mL heparin, 25 μg/mL KKO; (8) 0.5 U/mL heparin, 25 μg/mL TRA; and (9) A23187 10 μM (no FFN246). Incubation occurred for 45 minutes and platelets were centrifuged for 10 minutes at 576×g. Fluorescence in the platelet releasate was measured in a BMG Labtech Fluostar optima fluorometer at an appropriate emission/excitation spectra. Gain was set using the FFN246 releasate for each concentration at 50% of maximum signal.

healthy donor platelets [3] = test: FFN246 release from platelets activated with A23187 at varying FFN246 concentrations (Example 2, FIG. 1); assay type: cell-based; details: for MFI of platelet releasate, FFN246+A23187: A23187 45 min
From the text: Calcium (Ca) ionophores mobilize calcium ions from intracellular storage sites or transport it through the plasma membrane to increase the concentration of cytoplasmic calcium ions (Ca^2+) and thereby activate platelets. The Ca ionophore A23187 works by triggering release of Ca^2+ from the dense tubular system of platelets and is a potent activator of platelets. A23187 was used to test if FFN246 loaded platelets would release FFN246 into the supernatant upon activation.
Platelets were then washed twice in buffer containing prostaglandin E1 (PGE1) and apyrase to minimize platelet activation. The washed platelets were resuspended in Mg^2+/Ca^2+ buffer without inhibitors. Washed platelets were then incubated with A23187 for 45 minutes, after which platelets were centrifuged for 10 minutes at 576×g. Fluorescence in the platelet releasate/supernatant was measured in a BMG Labtech Fluostar Optima fluorometer at an appropriate emission/excitation spectra. Gain was set using the FFN246 releasate for each concentration at 50% of maximum signal.

[4] = system: healthy donor platelet rich plasma; test: Release of FFN246 vs FFN102 from platelets exposed to calcium ionophore (Example 5, FIG. 4); assay type: cell-based; details: 100 μM FFN; for MFI of supernatant, FFN-loaded platelets incubated with ionophore: calcium ionophore
Procedure: Drawing of donor blood and preparation of donor platelets. 10-20 cc of blood were drawn off into Acid-Citrate Dextrose. 20 mL of whole blood generated 8-10 mL of platelet rich plasma (PRP). The whole blood was spun down at 180 g for 20 minutes without using the brake. Donor PRP was separated and the needed PRP was calculated for each of the FFN246 and buffer conditions. 25 μM of FFN246 was added to the PRP condition labeled “FFN246”. 2.5 μL/mL of PGE1 was added to each PRP condition simultaneously. The mixture was incubated at 37° C. for 30 minutes in a H2O bath. For example, for 2.5 mL PRP, 6.25 μL PGE1 and 6.25 μL FFN246 were added. FFN246 was not added to the buffer PRP condition.
The mixture was centrifuged at 700 g for 10 minutes with a brake at 22° C. to 26° C. The supernatant was discarded and the platelets were gently resuspended in PGE1/Apyrase buffer 1 mL per mL PRP for 15 minutes at room temperature. For example, 2.5 mL PRP was resuspended in 2.5 mL buffer. This was centrifuged at 700 g for 10 minutes at room temperature with a brake. The supernatant was discarded and FFN246 or platelets were resuspended into 2 mL/PRP of Ca/Mg buffer after using a pipette to completely remove PGE1/apyrase containing buffer above pellet. For example, 2.5 mL of platelets was resuspended with 5 mL of HT Ca/Mg.
When various conditions were tested, such as NP40, buffer alone, buffer+heparin, SFLLRN, and additional conditions dictated by an experiment, the following aliquots were added: agonist, plasma, or antibody; buffer added to agonist to make 50 μL total; and 150 μL of FFN246 buffer labeled platelets. The conditions were allowed to develop for 1 hour at 37° C. on an agitator. The conditions were then centrifuged at 700 g for 10 mins at room temperature with a brake. 75 μL of the supernatant was added per well in triplicate. Fluorometer analysis was ran within 1 hour at appropriate excitation/emission spectra (FFN246 ex/em (nm): 392/427).
The amount of FFN246 released from platelets was compared to that of FFN102, a dopaminergic fluorophore. Healthy donor platelet rich plasma was incubated with 100 μM of FFN246, FFN102, or buffer alone. Incubation and washing occurred per the protocol described in Example 1. Resuspended platelets were added either to calcium ionophore or buffer conditions for both FFN246 and FFN102. Supernatant was collected following centrifugation and analyzed using fluorometry.

5-HT receptors = details: cited from earlier work
[5] = target: dopamine transporters (DAT) (Homo sapiens, UniProt Q01959); details: relative to SERT uptake; cited from earlier work
[6] = target: norepinephrine transporters (NET) (Homo sapiens, UniProt P23975); details: relative to SERT uptake; cited from earlier work
platelets = test: PF4 addition to assay conditions (platelet activation); assay type: cell-based; details: 30 μg/ml; healthy donor and HIT samples; absence of heparin addition
From the text: PF4 addition to assay conditions. Platelet factor 4 (PF4) is a 31.2 kDa protein synthesized primarily by megakaryocytes and stored in platelet alpha granules. Positively charged PF4 forms ultra large immune complexes with negatively charged heparin in patients who develop pathological heparin induced thrombocytopenia (HIT).

Sequence of dopamine transporters (DAT) (Q01959 whole entry, species assumed): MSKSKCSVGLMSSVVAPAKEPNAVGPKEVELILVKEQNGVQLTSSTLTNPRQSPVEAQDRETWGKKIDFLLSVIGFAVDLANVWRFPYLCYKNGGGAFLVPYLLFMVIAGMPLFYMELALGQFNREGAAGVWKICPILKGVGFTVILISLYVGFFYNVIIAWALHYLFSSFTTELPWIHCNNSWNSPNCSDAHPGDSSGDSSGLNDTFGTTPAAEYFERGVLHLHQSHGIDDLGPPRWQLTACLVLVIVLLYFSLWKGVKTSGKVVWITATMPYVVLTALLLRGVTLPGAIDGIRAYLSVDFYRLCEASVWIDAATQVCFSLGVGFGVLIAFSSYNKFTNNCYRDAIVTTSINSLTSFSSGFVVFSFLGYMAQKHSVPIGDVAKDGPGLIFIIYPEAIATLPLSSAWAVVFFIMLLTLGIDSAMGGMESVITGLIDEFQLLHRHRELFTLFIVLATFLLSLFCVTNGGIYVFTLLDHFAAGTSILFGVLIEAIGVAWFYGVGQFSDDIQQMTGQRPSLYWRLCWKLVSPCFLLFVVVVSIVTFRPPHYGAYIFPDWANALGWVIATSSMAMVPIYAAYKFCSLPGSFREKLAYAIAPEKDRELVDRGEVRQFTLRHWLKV
Sequence of norepinephrine transporters (NET) (P23975 whole entry): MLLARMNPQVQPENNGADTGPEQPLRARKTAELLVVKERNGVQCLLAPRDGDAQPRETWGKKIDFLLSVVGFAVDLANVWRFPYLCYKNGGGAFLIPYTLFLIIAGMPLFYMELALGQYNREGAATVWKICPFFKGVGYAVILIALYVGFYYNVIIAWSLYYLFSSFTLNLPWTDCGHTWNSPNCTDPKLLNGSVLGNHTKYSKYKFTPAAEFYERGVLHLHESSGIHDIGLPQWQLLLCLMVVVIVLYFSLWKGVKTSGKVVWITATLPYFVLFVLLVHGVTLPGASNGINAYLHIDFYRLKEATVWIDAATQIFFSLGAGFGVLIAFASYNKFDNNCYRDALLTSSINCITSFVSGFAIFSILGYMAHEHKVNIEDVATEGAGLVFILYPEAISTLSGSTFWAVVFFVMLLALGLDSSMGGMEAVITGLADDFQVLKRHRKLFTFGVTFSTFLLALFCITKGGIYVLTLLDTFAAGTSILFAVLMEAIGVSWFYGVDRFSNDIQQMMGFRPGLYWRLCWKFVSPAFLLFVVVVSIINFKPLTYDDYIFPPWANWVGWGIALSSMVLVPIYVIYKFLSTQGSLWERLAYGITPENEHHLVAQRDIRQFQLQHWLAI

## Nc1ncnc2c1ncn2[C@@H]1O[C@H](COP(=O)(O)OP(=O)(O)O)[C@@H](O)[C@H]1O [ADP, adenosine diphosphate]
Healthy donor platelets [1]
  MFI of platelet releasate, FFN246+agonist: 14013

## CNc1ccc2oc(C[C@H]3O[C@@]4(CC[C@H]3C)O[C@H]([C@H](C)C(=O)c3ccc[nH]3)[C@H](C)C[C@H]4C)nc2c1C(=O)O [A23187]
[2]; A23187 10 μM, no FFN246
  MFI of platelet releasate, buffer+calcium ionophore (no FFN246): 11399
[2]; A23187 10 μM
  MFI of platelet releasate, FFN246+agonist or antibody, no heparin: 32674
Healthy donor platelets [3]; background paired with 10 uM FFN246 condition
  MFI of platelet releasate, buffer+A23187 (no FFN246): 10,100
Healthy donor platelets [3]; background paired with 25 μM FFN246 condition
  MFI of platelet releasate, buffer+A23187 (no FFN246): 4,707
Healthy donor platelets [3]; background paired with 50 μM FFN246 condition
  MFI of platelet releasate, buffer+A23187 (no FFN246): 3,461
Healthy donor platelets [3]; background paired with 100 μM FFN246 condition
  MFI of platelet releasate, buffer+A23187 (no FFN246): 1,676
Healthy donor platelets [1]; buffer only platelets + A23187 10 μM
  MFI of platelet releasate, buffer+calcium ionophore (no FFN246): 12526
Healthy donor platelets [1]
  MFI of platelet releasate, FFN246+agonist: 31924

## Cl.NCCc1cc(=O)oc2cc(O)c(Cl)cc12 [FFN102]
[4]
  MFI of supernatant, FFN-loaded platelets incubated with buffer: 7247+352
  MFI of supernatant, FFN-loaded platelets incubated with ionophore: 9845+352

## SFLLRN
[2]; A23187 10 μM
  MFI of platelet releasate, FFN246+agonist or antibody, no heparin: 25426
Healthy donor platelets [1]
  MFI of platelet releasate, FFN246+agonist: 26703

## ristocetin
Healthy donor platelets [1]
  MFI of platelet releasate, FFN246+agonist: 12247

## collagen
[2]; A23187 10 μM
  MFI of platelet releasate, FFN246+agonist or antibody, no heparin: 24388
Healthy donor platelets [1]
  MFI of platelet releasate, FFN246+agonist: 24369

## NCCc1ccc2[nH]c3cccc(F)c3c(=O)c2c1 [FFN246]
[4]
  MFI of supernatant, FFN-loaded platelets incubated with buffer: 15,692+1203
  MFI of supernatant, FFN-loaded platelets incubated with ionophore: 32901+448
5-HT receptors
  activity at 5-HT receptors: no activity at 5-HT receptors
  binding to neurotransmitter receptors: does not bind to neurotransmitter receptors
[5]
  uptake by dopamine transporters (DAT), lower than SERT: 31%
[6]
  uptake by norepinephrine transporters (NET), lower than SERT: 23%
[2]; 50 μM FFN246, no agonist
  MFI of platelet releasate, FFN246+buffer: 11688
Healthy donor platelets [3]; 10 uM FFN246
  MFI of platelet releasate, FFN246+A23187: 25,790
Healthy donor platelets [3]; 25 μM FFN246
  MFI of platelet releasate, FFN246+A23187: 36,124
Healthy donor platelets [3]; 50 μM FFN246
  MFI of platelet releasate, FFN246+A23187: 30,470
Healthy donor platelets [3]; 100 μM FFN246
  MFI of platelet releasate, FFN246+A23187: 35,405
Healthy donor platelets [1]; 50 μM FFN246, no agonist
  MFI of platelet releasate, FFN246+buffer: 12199

B1: PF4: 31.2 kDa protein synthesized primarily by megakaryocytes and stored in platelet alpha granules (protein, UniProt P02776 32-101, looked up)
Platelet factor 4: EAEEDGDLQCLCVKTTSQVRPRHITSLEVIKAGPHCPTAQLIATLKNGRKICLDLQAPLYKKIIKKLLES
platelets
  platelet activation by exogenous PF4 added to plasma conditions: led to platelet activation
